Results on 30 molecules are retold here after patent US20140018384A1, “QUINOLINONE DERIVATIVES FOR USE IN THE TREATMENT OF AN AUTOIMMUNE DISEASE AND/OR AN INFLAMMATORY DISEASE” (PRONOXIS AB, priority 2011, published 2014).

Molecules are shown by their SMILES. Read-outs that look alike come from different tables or passages of the source.

One assay deals with HL-60 cells. The assay can be described thus: ROS production (isoluminol/HRP luminescence) in HL-60 cells, Biological Example 1. The conditions noted are these: Homo sapiens, 50 μM compound vs. blank, read-out: Activity A (fold increase of NADPH activity compared to control). In kind it is cell-based. How it is done:
To cells (HL-60 or PLB-985) in HBSS medium was added compound (25 or 50 μM), isoluminol and Horse Radish Peroxidase, fraction II. Luminescence was measured for 10-30 minutes and the area under the […] curve was divided by that from a control experiment to give the activity expressed as fold change.
Each assay indicated below was performed at a different site, at a different time, by different personnel and/or using different cell lines, concentrations and controls. The cell line, concentration of example compound and control used in respect of each assay were as indicated below. The values obtained from these different setups (each using an otherwise identical assay) are given as Activity A, B, C, D or E in Table 5 below. The values are expressed as fold increase of NADPH activity in the presence of the relevant of compound (as indicated below) compared to the relevant control (as indicated below).
Activity A: HL-60 cells; 50 μM compound vs. blank Activity B: PLB-985 cells; 25 μM compound vs. blank Activity C, D and E: PLB-985 cells; 25 μM compound vs. DMSO

In a further assay the test system is PLB-985 cells. Nature of the assay: ROS production (isoluminol/HRP luminescence) in PLB-985 cells, Biological Example 1. Type of assay: cell-based. The gist of the method: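 Cells in HBSS received compound plus isoluminol and HRP; luminescence followed 10–30 min, AUC divided by control to give fold change in NADPH oxidase activity. HL-60: 50 μM compound vs blank; PLB-985: 25 μM compound vs blank or vs DMSO.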

Setting [1] is: 25 μM compound vs. DMSO, setup C, read-out: Activity C (fold increase of NADPH activity compared to control).
[2] abbreviates: 25 μM compound vs. DMSO, setup E, read-out: Activity E (fold increase of NADPH activity compared to control).
Setting [3] is: 25 μM compound vs. blank, read-out: Activity B (fold increase of NADPH activity compared to control).
The mark [4] stands for this setting: 25 μM compound vs. DMSO, setup D, read-out: Activity D (fold increase of NADPH activity compared to control).

On to `COc1ccc(NC(=O)Cn2cc(C(=O)c3ccc(F)cc3)c(=O)c3cc4c(cc32)OCO4)c(OC)c1` [Example 93, N-(2,4-Dimethoxyphenyl)-2-[3-(4-fluorobenzoyl)-6,7-methylenedioxy-4-oxo-1-quinolinyl]acetamide], for which the fold induction at 50 µM in the assay on HL-60 cells is 2.9.

For `O=C(Cn1cc(S(=O)(=O)c2ccc(F)cc2)c(=O)c2cc3c(cc21)OCO3)Nc1ccccc1` [Example 96, 2-[3-(4-Fluorobenzenesulfonyl)-6,7-methylenedioxy-4-oxo-1-quinolinyl]-N-phenylacetamide], the fold induction at 50 µM in the assay with HL-60 cells was 2.3. With `CCc1ccc(C(=O)c2cn(CC(=O)Nc3ccc(OC)cc3)c3cc4c(cc3c2=O)OCO4)cc1` [Example 98, N-p-Anisyl-2-[3-(4-ethylbenzoyl)-6,7-methylenedioxy-4-oxo-1-quinolinyl]acetamide], in the assay on HL-60 cells, the fold induction at 50 µM was found to be 9. With `CCOc1ccc2c(c1)c(=O)c(C(=O)c1ccc(C)cc1)cn2CC(=O)Nc1ccccc1C` [Example 91, 2-(6-Ethoxy-4-oxo-3-p-toluoyl-1-quinolinyl)-N-o-tolylacetamide], the fold induction at 50 µM in the assay with HL-60 cells came to 5.3. In the case of `O=C(Cn1cc(C(=O)c2ccc(Cl)cc2)c(=O)c2cc3c(cc21)OCO3)Nc1ccc(F)cc1` [Example 92, 2-[3-(4-Chlorobenzoyl)-6,7-methylenedioxy-4-oxo-1-quinolinyl]-N-(4-fluorophenyl)acetamide], the fold induction at 50 µM with HL-60 cells is 8.2. As to `Cc1ccc(C(=O)c2cn(CC(=O)Nc3ccccc3C)c3cc4c(cc3c2=O)OCO4)cc1` [Example 101, 2-(6,7-Methylenedioxy-4-oxo-3-p-toluoyl-1-quinolinyl)-N-o-tolylacetamide], the fold induction at 50 µM with HL-60 cells worked out at 2.1.

On to `CCOc1ccc(C(=O)c2cn(CC(=O)Nc3ccc(OC)cc3)c3cc4c(cc3c2=O)OCO4)cc1` [Example 94, N-p-Anisyl-2-[3-(4-ethoxybenzoyl)-6,7-methylenedioxy-4-oxo-1-quinolinyl]acetamide], for which, in the assay with HL-60 cells, the fold induction at 50 µM is 8.4. For `O=C(Cn1cc(C(=O)c2ccc(F)cc2)c(=O)c2cc3c(cc21)OCO3)Nc1ccc2c(c1)OCCO2` [Example 81, N-(3,4-Ethylenedioxyphenyl)-2-[3-(4-fluorobenzoyl)-6,7-methylenedioxy-4-oxo-1-quinolinyl]acetamide], the fold induction at 25 µM in the assay on PLB-985 cells (setting [1]) came out at 22.6.

As for `O=C(Cn1cc(C(=O)c2ccc3ccccc3c2)c(=O)c2cc3c(cc21)OCO3)Nc1ccc(Cl)cn1` [Example 28, N-(5-Chloro-2-pyridyl)-2-[6,7-methylenedioxy-3-(2-naphthoyl)-4-oxo-1-quinolinyl]-acetamide], the fold induction at 25 µM in the assay with PLB-985 cells (setting [1]) stood at 16.1.

For the molecule `COc1cc2c(=O)c(C(=O)c3ccc4ccccc4c3)cn(CC(=O)Nc3ccc(Cl)cc3)c2cn1` [Example 24, N-(4-Chlorophenyl)-2-[6-methoxy-3-(2-naphthoyl)-4-oxo-(1,7-naphthyridin-1-yl)]-acetamide], the fold induction at 25 µM in the assay with PLB-985 cells (setting [2]) came to 1.7. Consider `Cc1ccc(C(=O)c2cn(CC(=O)Nc3ccc(F)cc3)c3cc4c(cc3c2=O)OCO4)cc1C` [Example 72, 2-[3-(3,4-Dimethylbenzoyl)-6,7-methylenedioxy-4-oxo-1-quinolinyl]-N-(4-fluorophenyl)acetamide], for which the fold induction at 25 µM in the assay with PLB-985 cells (setting [1]) was 33.6; in the assay on PLB-985 cells (setting [3]), 62.6. `COc1ccc(NC(=O)Cn2cc(S(=O)(=O)c3ccc(Cl)cc3)c(=O)c3cc4c(cc32)OCO4)cc1` [Example 45, N-p-Anisyl-2-[3-(4-chlorobenzenesulfonyl)-6,7-methylenedioxy-4-oxo-1-quinolinyl]acetamide]: in the assay with PLB-985 cells (setting [1]), the fold induction at 25 µM worked out at 10.7. With `COc1ccc(NC(=O)Cn2cc(C(=O)c3ccc(F)cc3)c(=O)c3cc(F)ccc32)cc1` [Example 106, N-p-Anisyl-2-[6-fluoro-3-(4-fluorobenzoyl)-4-oxo-1-quinolinyl]acetamide], in the assay on PLB-985 cells (setting [4]), the fold induction at 25 µM is 5.6. For the molecule `CCOc1ccc(C(=O)c2cn(CC(=O)Nc3ccc(F)c(F)c3)c3cc4c(cc3c2=O)OCO4)cc1` [Example 67, N-(3,4-Difluorophenyl)-2-[3-(4-ethoxybenzoyl)-6,7-methylenedioxy-4-oxo-1-quinolinyl]acetamide], the fold induction at 25 µM in the assay on PLB-985 cells (setting [1]) was 1.8; with PLB-985 cells (setting [3]), 2.3. `O=C(Cn1cc(C(=O)c2ccc3ccccc3c2)c(=O)c2cc3c(cc21)OCO3)Nc1cccc(OC(F)(F)F)c1` [Example 8, 2-[6,7-Methylenedioxy-3-(2-naphthoyI)-4-oxo-1-quinolinyl]-N-(3-trifluoromethoxyphenyl)acetamide]: the fold induction at 25 µM in the assay on PLB-985 cells (setting [2]) worked out at 1.3. As to `COc1cc2c(cc1C)c(=O)c(C(=O)c1ccc3ccccc3c1)cn2CC(=O)Nc1ccc(Cl)cc1` [Example 20, N-(4-Chlorophenyl)-2-[7-methoxy-6-methyl-3-(2-naphthoyl)-4-oxo-1-quinolinyl]acetamide], in the assay on PLB-985 cells (setting [4]), the fold induction at 25 µM was 6.3.

As for `CCOc1ccc(C(=O)c2cn(CC(=O)Nc3ccc(Cl)cc3)c3cc4c(cc3c2=O)OCO4)cc1` [Example 61, N-(4-Chlorophenyl)-2-[3-(4-ethoxybenzoyl)-6,7-methylenedioxy-4-oxo-1-quinolinyl]acetamide], the fold induction at 25 µM is 28.5 with PLB-985 cells (setting [1]) and 35.9 in the assay with PLB-985 cells (setting [3]).

On to `O=C(Cn1cc(S(=O)(=O)c2ccccc2)c(=O)c2cc3c(cc21)OCO3)Nc1ccc(F)cc1` [Example 80, 2-(3-Benzenesulfonyl-6,7-methylenedioxy-4-oxo-1-quinolinyl)-N-(4-fluorophenyl)acetamide], for which the fold induction at 25 µM in the assay on PLB-985 cells (setting [1]) stood at 3.2. As for `O=C(Cn1cc(C(=O)c2ccc3ccccc3c2)c(=O)c2cc3c(cc21)OCO3)Nc1cccc(Cl)c1` [Example 4, N-(3-chlorophenyl)-2-[6,7-methylenedioxy-3-(2-naphthoyl)-4-oxo-1-quinolinyl]acetamide], the fold induction at 25 µM in the assay with PLB-985 cells (setting [2]) was determined as 3.4. For `COc1ccc(C(=O)c2cn(CC(=O)Nc3cccc(OC)c3)c3cc4c(cc3c2=O)OCO4)cc1` [Example 77], the fold induction at 25 µM with PLB-985 cells (setting [1]) was 2.8. Turning to `COc1ccc2c(c1)c(=O)c(C(=O)c1ccc(F)cc1)cn2CC(=O)Nc1ccc(C(F)(F)F)cc1` [Example 38, 2-[3-(4-Fluorobenzoyl)-6-methoxy-4-oxo-1-quinolinyl]-N-(4-trifluoromethylphenyl)acetamide], the fold induction at 25 µM in the assay with PLB-985 cells (setting [2]) was 7. `O=C(Cn1cc(C(=O)c2ccc(F)cc2)c(=O)c2cc3c(cc21)OCO3)Nc1ccc2c(c1)OCO2` [Example 86, 2-[3-(4-Fluorobenzoyl)-6,7-methylenedioxy-4-oxo-1-quinolinyl]-N-(3,4-methylenedioxyphenyl)acetamide]: the figures for the fold induction at 25 µM in the assay on PLB-985 cells (setting [1]) and in the assay on PLB-985 cells (setting [3]) were 28.3 and 22.7, respectively. Regarding `Cc1ccc(C(=O)c2cn(CC(=O)Nc3ccc4c(c3)OCCO4)c3cc4c(cc3c2=O)OCO4)cc1C` [Example 74, 2-[3-(3,4-Dimethylbenzoyl)-6,7-methylenedioxy-4-oxo-1-quinolinyl]-N-(3,4-ethylenedioxyphenyl)-acetamide], the results for the fold induction at 25 µM in the assay with PLB-985 cells (setting [1]) and in the assay with PLB-985 cells (setting [3]) were 20.1 and 38, respectively. Take `COc1cc(OC)c2c(=O)c(C(=O)c3ccc(F)cc3)cn(CC(=O)Nc3ccc(Cl)cc3)c2c1` [Example 44]: the fold induction at 25 µM in the assay with PLB-985 cells (setting [2]) was 78.1. Turning to `COc1ccc(NC(=O)Cn2cc(C(=O)c3ccco3)c(=O)c3cc4c(cc32)OCO4)cc1` [Example 26, N-p-Anisyl-2-[3-(2-furoyl)-6,7-methylenedioxy-4-oxo-1-quinolinyl]acetamide], the fold induction at 25 µM in the assay on PLB-985 cells (setting [1]) was found to be 14.9.

For `COc1ccc2c(n1)c(=O)c(C(=O)c1ccc(F)cc1)cn2CC(=O)Nc1ccc(C)cc1` [Example 39, 2-[3-(4-Fluorobenzoyl)-6-methoxy-4-oxo-1,5-naphthyridin-1-yl]-N-p-tolylacetamide], in the assay on PLB-985 cells (setting [2]), the fold induction at 25 µM is 76.2.

On to `COc1ccc2c(c1)c(=O)c(C(=O)c1ccc3ccccc3c1)cn2CC(=O)Nc1ccc(Cl)cc1` [Example 16, N-(4-Chlorophenyl)-2-[6-methoxy-3-(2-naphthoyl)-4-oxo-1-quinolinyl]acetamide], for which the fold induction at 25 µM in the assay with PLB-985 cells (setting [4]) is 35.4; in the assay with PLB-985 cells (setting [2]), 5.9. With `O=C(Cn1cc(C(=O)c2cccnc2)c(=O)c2cc3c(cc21)OCO3)Nc1ccc(Cl)cn1` [Example 34, N-(5-Chloro-2-pyridyl)-2-(6,7-methylenedioxy-3-nicotinoyl-4-oxo-1-quinolinyl)acetamide], the fold induction at 25 µM in the assay on PLB-985 cells (setting [1]) is 27.5.

In the case of `O=C(Cn1cc(C(=O)c2ccccc2)c(=O)c2cc3c(cc21)OCO3)Nc1ccc(F)cc1` [Example 63, 2-(3-Benzoyl-6,7-methylenedioxy-4-oxo-1-quinolinyl)-N-(4-fluorophenyl)acetamide], the values for the fold induction at 25 µM in the assay with PLB-985 cells (setting [1]) and in the assay on PLB-985 cells (setting [3]) were 24.3 and 37.3, respectively. `COc1cccc(NC(=O)Cn2cc(C(=O)c3ccc(C)c(C)c3)c(=O)c3cc4c(cc32)OCO4)c1` [Example 75, N-m-Anisyl-2-[3-(3,4-dimethylbenzoyl)-6,7-methylenedioxy-4-oxo-1-quinolinyl]acetamide]: the fold induction at 25 µM with PLB-985 cells (setting [1]) stood at 5.3; in the assay on PLB-985 cells (setting [3]), 7.7.
